Results published in ChEMBL document CHEMBL5380794, “Discovery of a Potent and Selective STAT5 PROTAC Degrader with Strong Antitumor Activity In Vivo in Acute Myeloid Leukemia” (J Med Chem, 2023).
Blank lines part the entries; values can stand above or below the compound they belong to. Calls of active or inactive are those of the source. The calls are words filed in the database; no cut-off is given here.

Key:
[1] = target: T1, Signal transducer and activator of transcription 5B (Homo sapiens, UniProt P51692); experiment: Binding affinity to STAT5B (unknown origin) assessed as inhibition constant by FP assay
T1 sequence (P51692 whole entry): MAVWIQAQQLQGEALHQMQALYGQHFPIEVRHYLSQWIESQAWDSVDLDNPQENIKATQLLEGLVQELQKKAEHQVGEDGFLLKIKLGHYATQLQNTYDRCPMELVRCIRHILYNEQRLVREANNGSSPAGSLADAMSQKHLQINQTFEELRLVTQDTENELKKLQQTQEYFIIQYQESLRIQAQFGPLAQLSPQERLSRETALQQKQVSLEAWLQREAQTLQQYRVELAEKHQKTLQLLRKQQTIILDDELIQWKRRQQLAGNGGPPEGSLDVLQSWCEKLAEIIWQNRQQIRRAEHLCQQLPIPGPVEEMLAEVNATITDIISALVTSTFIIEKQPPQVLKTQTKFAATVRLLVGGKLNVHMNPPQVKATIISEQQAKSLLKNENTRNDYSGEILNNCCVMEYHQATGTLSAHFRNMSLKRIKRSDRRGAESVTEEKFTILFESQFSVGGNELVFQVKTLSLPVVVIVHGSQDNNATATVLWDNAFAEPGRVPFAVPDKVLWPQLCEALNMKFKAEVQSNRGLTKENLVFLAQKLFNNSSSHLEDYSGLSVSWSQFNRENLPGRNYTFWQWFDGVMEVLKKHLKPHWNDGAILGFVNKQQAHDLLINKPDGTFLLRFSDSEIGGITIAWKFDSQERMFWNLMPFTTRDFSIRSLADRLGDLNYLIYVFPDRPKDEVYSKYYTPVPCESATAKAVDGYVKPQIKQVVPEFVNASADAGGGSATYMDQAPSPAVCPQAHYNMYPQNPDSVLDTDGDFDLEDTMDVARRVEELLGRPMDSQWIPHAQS

[2] = target: T2, Signal transducer and activator of transcription 6 (Homo sapiens, UniProt P42226); experiment: Binding affinity to STAT6 SH2 domain (unknown origin) assessed as inhibition constant by FP assay
T2 sequence (P42226 whole entry): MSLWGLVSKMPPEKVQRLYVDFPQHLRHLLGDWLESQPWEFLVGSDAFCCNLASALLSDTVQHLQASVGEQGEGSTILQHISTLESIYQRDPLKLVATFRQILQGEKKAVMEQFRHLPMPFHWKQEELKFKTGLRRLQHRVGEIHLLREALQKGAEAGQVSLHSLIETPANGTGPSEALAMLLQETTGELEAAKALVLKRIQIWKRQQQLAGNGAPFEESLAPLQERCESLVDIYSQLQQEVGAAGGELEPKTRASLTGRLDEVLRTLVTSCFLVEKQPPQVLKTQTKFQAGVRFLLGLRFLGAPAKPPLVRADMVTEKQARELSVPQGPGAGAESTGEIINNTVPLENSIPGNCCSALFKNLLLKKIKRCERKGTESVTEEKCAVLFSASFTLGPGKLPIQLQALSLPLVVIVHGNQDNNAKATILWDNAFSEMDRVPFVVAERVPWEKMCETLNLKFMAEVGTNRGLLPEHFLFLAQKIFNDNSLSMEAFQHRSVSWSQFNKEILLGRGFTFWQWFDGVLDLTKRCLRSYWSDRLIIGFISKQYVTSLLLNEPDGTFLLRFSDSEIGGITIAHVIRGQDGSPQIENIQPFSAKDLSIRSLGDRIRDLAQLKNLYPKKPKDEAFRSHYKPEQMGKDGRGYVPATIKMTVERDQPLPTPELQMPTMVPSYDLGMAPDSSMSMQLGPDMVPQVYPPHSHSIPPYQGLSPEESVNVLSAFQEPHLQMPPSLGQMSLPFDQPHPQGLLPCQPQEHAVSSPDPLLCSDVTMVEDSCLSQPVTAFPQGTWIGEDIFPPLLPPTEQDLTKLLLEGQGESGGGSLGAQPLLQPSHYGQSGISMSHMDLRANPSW

[3] = target: T3, Signal transducer and activator of transcription 5A (Homo sapiens, UniProt P42229); experiment: Binding affinity to N-terminal 6his-tagged human STAT5A (136 to 705 residues) expressed in Escherichia coli BL21-DE3 rosetta cells assessed as inhibition constant by FP assay
T3 sequence (P42229 whole entry): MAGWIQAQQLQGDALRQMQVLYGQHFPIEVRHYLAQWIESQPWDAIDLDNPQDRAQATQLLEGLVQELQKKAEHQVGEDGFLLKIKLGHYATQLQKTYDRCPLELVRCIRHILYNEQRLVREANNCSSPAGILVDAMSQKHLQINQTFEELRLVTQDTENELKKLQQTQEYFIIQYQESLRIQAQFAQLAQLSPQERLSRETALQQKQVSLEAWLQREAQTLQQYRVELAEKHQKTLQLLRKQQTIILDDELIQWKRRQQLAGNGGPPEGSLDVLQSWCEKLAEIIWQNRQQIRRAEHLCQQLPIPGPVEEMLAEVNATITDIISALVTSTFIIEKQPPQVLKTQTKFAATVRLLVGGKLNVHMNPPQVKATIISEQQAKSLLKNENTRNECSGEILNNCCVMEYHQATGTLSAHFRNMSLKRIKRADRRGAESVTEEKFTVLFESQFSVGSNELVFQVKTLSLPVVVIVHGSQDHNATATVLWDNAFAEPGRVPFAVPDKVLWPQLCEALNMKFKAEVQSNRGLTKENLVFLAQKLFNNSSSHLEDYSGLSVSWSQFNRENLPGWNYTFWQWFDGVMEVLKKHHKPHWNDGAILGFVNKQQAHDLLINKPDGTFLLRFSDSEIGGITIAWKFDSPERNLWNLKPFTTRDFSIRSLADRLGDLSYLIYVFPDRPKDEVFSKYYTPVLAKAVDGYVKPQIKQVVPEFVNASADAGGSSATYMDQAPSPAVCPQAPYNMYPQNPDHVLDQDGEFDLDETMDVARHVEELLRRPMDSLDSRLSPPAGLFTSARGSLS

[4] = target: T2, Signal transducer and activator of transcription 6; experiment: Induction of STAT6 degradation in human SKNO-1 cells measured for 18 hrs by Western blot analysis; format: cell-based; details: read-out: DC50
[5] = target: T3, Signal transducer and activator of transcription 5A; experiment: Induction of STAT5 degradation in human SKNO-1 cells measured for 18 hrs by Western blot analysis; format: cell-based
[6] = target: T4, Signal transducer and activator of transcription 5A (Homo sapiens) (UniProt P42229); experiment: Induction of STAT5 degradation in human SKNO-1 cells assessed as maximal degradation at 0.05 to 5 uM measured for 18 hrs by Western blot analysis relative to control; format: cell-based; details: dose 0.05-5 µM
T4 sequence (whole entry): T3 sequence (P42229 whole entry)

SKNO-1 [7] = experiment: Effect on STAT4 level in human SKNO-1 cells upto 5 uM measured for 18 hrs by Western blot analysis; format: functional, cell-based
[8] = target: T4, Signal transducer and activator of transcription 5A (Homo sapiens); experiment: Inhibition of STAT5 phosphorylation in human MV4-11 cells assessed as reduction in […] phosphorylation at Y694 residue at 0.2 uM measured for 6 hrs by Western blot analysis; format: cell-based
[9] = target: T4, Signal transducer and activator of transcription 5A (Homo sapiens); experiment: Inhibition of STAT5 phosphorylation in human MV4-11 cells assessed as reduction in STAT5 level at 1 uM measured for 6 hrs by Western blot analysis; format: cell-based
MV4-11 [10] = experiment: Effect on STAT1 level in human MV4-11 cells upto 5 uM measured for 18 hrs by Western blot analysis; format: functional, cell-based
SKNO-1 [11] = experiment: Effect on STAT2 level in human SKNO-1 cells upto 5 uM measured for 18 hrs by Western blot analysis; format: functional, cell-based
SKNO-1 [12] = experiment: Effect on STAT1 level in human SKNO-1 cells upto 5 uM measured for 18 hrs by Western blot analysis; format: functional, cell-based
MV4-11 [13] = experiment: Effect on STAT2 level in human MV4-11 cells upto 5 uM measured for 18 hrs by Western blot analysis; format: functional, cell-based
SKNO-1 [14] = experiment: Effect on STAT6 level in human SKNO-1 cells upto 5 uM measured for 18 hrs by Western blot analysis; format: functional, cell-based
SKNO-1 [15] = experiment: Effect on STAT3 level in human SKNO-1 cells upto 5 uM measured for 18 hrs by Western blot analysis; format: functional, cell-based
MV4-11 [16] = experiment: Effect on STAT3 level in human MV4-11 cells upto 5 uM measured for 18 hrs by Western blot analysis; format: functional, cell-based
MV4-11 [17] = experiment: Effect on STAT6 level in human MV4-11 cells upto 5 uM measured for 18 hrs by Western blot analysis; format: functional, cell-based
Homo sapiens = species: Homo sapiens; experiment: Selectivity ratio of DC50 for induction of STAT5 degradation in human SKNO-1 cells to DC50 for STAT6 degradation in human SKNO-1 cells; format: cell-based
Protein cereblon = Protein cereblon (Homo sapiens, UniProt Q96SW2); experiment: Binding affinity to GST-tagged wild type human CRBN assessed as inhibition constant by TR-FRET assay
Sequence of Protein cereblon (Q96SW2 whole entry): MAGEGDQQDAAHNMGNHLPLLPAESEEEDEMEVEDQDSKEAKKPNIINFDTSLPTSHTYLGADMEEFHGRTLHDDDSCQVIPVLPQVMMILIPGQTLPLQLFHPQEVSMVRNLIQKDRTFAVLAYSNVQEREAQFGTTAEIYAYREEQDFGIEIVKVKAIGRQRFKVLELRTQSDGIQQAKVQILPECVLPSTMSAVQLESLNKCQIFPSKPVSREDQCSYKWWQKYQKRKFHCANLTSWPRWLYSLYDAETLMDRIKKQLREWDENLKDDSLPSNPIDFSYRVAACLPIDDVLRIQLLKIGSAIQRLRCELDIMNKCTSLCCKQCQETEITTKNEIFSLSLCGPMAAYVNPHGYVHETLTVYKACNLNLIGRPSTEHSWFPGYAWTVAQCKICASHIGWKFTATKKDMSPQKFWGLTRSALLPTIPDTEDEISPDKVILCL

Compound: CN(CCCC#Cc1cccc2c1CN(C1CCC(=O)NC1=O)C2=O)C(=O)CCN(C(=O)[C@@H]1CCCN1C(=O)[C@@H](NC(=O)c1cc2cc(C(F)(F)P(=O)(O)O)ccc2s1)C(C)(C)C)c1ccc(Br)cc1 (stereo partly specified)
DC50 [4]: > 5 µM
DC50 [5]: 0.19 µM
Emax [6]: > 95%

Compound: CN(C)C(=O)CCN(C(=O)[C@@H]1CCCN1C(=O)[C@@H](NC(=O)c1cc2cc(C(F)(F)P(=O)(O)O)ccc2s1)C(C)(C)C)c1ccc(-c2ccccc2)cc1
Ki [1]: 5.2 µM
Ki [2]: 2 µM
Ki [3]: 3.4 µM

Compound: CN(C)C(=O)CCN(C(=O)[C@@H]1CCCN1C(=O)[C@@H](NC(=O)c1cc2cc(C(F)(F)P(=O)(O)O)ccc2s1)C(C)(C)C)c1ccc(-c2nccs2)cc1
Activity (SKNO-1 [7]): inactive
Ki [1]: 1 µM
inhibition [8]: inactive
inhibition [9]: inactive
Activity (MV4-11 [10]): inactive
Activity (SKNO-1 [11]): inactive
Activity (SKNO-1 [12]): inactive
Activity (MV4-11 [13]): inactive
Activity (SKNO-1 [14]): inactive
Activity (SKNO-1 [15]): inactive
Ki [3]: 1 µM
Activity (MV4-11 [16]): inactive
Activity (MV4-11 [17]): inactive

Compound: CC(C)(C)[C@H](NC(=O)c1cc2cc(C(F)(F)P(=O)(O)O)ccc2s1)C(=O)N1CCC[C@H]1C(=O)N(CCC(=O)NCCCC#Cc1cccc2c1CN(C1CCC(=O)NC1=O)C2=O)c1ccc(Br)cc1 (stereo partly specified)
DC50 [4]: > 5 µM
Ratio (Homo sapiens): > 20
DC50 [5]: 0.23 µM
Emax [6]: > 95%

Compound: CN(C)C(=O)CCN(C(=O)[C@@H]1CCCN1C(=O)[C@@H](NC(=O)c1cc2cc(C(F)(F)P(=O)(O)O)ccc2s1)C(C)(C)C)c1cccc(-c2nccs2)c1
Ki [1]: 6.1 µM
Ki [2]: 1.9 µM
Ki [3]: 4.9 µM

Compound: CN(CCCC#Cc1cccc2c1CN(C1CCC(=O)N(C)C1=O)C2=O)C(=O)CCN(C(=O)[C@@H]1CCCN1C(=O)[C@@H](NC(=O)c1cc2cc(C(F)(F)P(=O)(O)O)ccc2s1)C(C)(C)C)c1ccc(-c2nccs2)cc1 (stereo partly specified)
Activity (SKNO-1 [7]): inactive
inhibition [8]: inactive
inhibition [9]: inactive
Activity (MV4-11 [10]): inactive
Activity (SKNO-1 [11]): inactive
Activity (SKNO-1 [12]): inactive
Activity (MV4-11 [13]): inactive
Activity (SKNO-1 [14]): inactive
Activity (SKNO-1 [15]): inactive
Ki (Protein cereblon): > 5 µM
Activity (MV4-11 [16]): inactive
Activity (MV4-11 [17]): inactive

Compound: CN(C)C(=O)CCN(C(=O)[C@@H]1CCCN1C(=O)[C@@H](NC(=O)c1cc2cc(C(F)(F)P(=O)(O)O)ccc2s1)C(C)(C)C)c1ccc2ccccc2c1
Ki [1]: 1 µM
Ki [2]: 0.2 µM
Ki [3]: 1.2 µM

The remaining lines, values ahead:

Ki [1]: 1.6 µM
Ki [2]: 3 µM
Ki [3]: 1.2 µM
Compound: CN(C)C(=O)CCN(C(=O)[C@@H]1CCCN1C(=O)[C@H](Cc1ccc(Br)cc1)NC(=O)c1cc2cc(C(F)(F)P(=O)(O)O)ccc2s1)c1ccc(-c2nccs2)cc1

Ki [1]: 3.1 µM
Ki [2]: 1.3 µM
Ki [3]: 2.9 µM
Compound: CN(C)C(=O)CCN(C(=O)[C@@H]1CCCN1C(=O)[C@@H](NC(=O)c1cc2cc(C(F)(F)P(=O)(O)O)ccc2s1)C1CC1)c1ccc(-c2nccs2)cc1

Ki [1]: 4 µM
Ki [2]: 2.5 µM
Ki [3]: 3.2 µM
Compound: CN(C)C(=O)CCN(C(=O)[C@@H]1CCCN1C(=O)[C@@H](NC(=O)c1cc2cc(C(F)(F)P(=O)(O)O)ccc2s1)c1ccccc1)c1ccc(-c2nccs2)cc1

Ki [1]: 2.5 µM
Ki [2]: 4 µM
Ki [3]: 2.3 µM
Compound: CN(C)C(=O)CCN(C(=O)[C@@H]1CCCN1C(=O)[C@H](Cc1ccc(C(F)(F)F)cc1)NC(=O)c1cc2cc(C(F)(F)P(=O)(O)O)ccc2s1)c1ccc(-c2nccs2)cc1

Ki [1]: 1.6 µM
Ki [2]: 1.5 µM
Ki [3]: 1.4 µM
Compound: CN(C)C(=O)CCN(C(=O)[C@@H]1CCCN1C(=O)[C@H](CCc1ccccc1)NC(=O)c1cc2cc(C(F)(F)P(=O)(O)O)ccc2s1)c1ccc(-c2nccs2)cc1
